{"source": "patent US20080207692A1", "about": "“Stabilized and preserved ketoifen ophthalmic compositions” (priority 2005, published 2008)", "format_in_all_cases": "physicochemical", "key": {"[1]": {"assay": "Compatibility of ketotifen with low concentrations of hydrogen peroxide"}, "[2]": {"assay": "Stability of ketotifen-perborate formulations filled in polypropylene bottles and stored at 55° C.", "conditions": "stored at 55° C., Table 2 formulations", "procedure": "The stability of the formulations shown in Table 1 are evaluated by filling the formulations in bottles and storing the formulations at 55° C. for various times."}, "[3]": {"assay": "Hot stability: formulations heated at 100° C. for 24 hours"}}, "data": [{"molecule": "CN1CCC(=C2c3ccccc3CC(=O)c3sccc32)CC1", "note": "[ketotifen]", "values": [{"measurement": "Compatibility with low concentrations of hydrogen peroxide", "setting": "[1]; formulated at a pH lower than neutral pH", "value": "compatible"}, {"measurement": "Compatibility with low concentrations of hydrogen peroxide", "setting": "[1]; formulated at neutral pH, i.e., a pH of about 7", "value": "not compatible"}, {"measurement": "Stability of ketotifen (in words)", "setting": "[2]", "value": "stable"}, {"measurement": "Stability of ketotifen (in words)", "setting": "[3]", "value": "stable"}]}]}
